Results from patent publication US4127722A, “Benzhydrylsulphinyl derivatives” (Laboratoire L. Lafon, priority 1975, dated 1978).

Columns and labels:
[1] = test system: stereotype behaviour induced by amphetamine; assay: Interaction with amphetamine; format: in vivo, rats; details: for boosting of stereotypies produced by amphetamine-type compounds: in words; for duration of the stereotypies brought about by amphetamine: rat, in vivo
Experimental: Amphetamine (2 mg/kg, given intraperitoneally) is injected 30 minutes after the administration of CRL 40,028 (6 rats/dose).

[2] = test system: hypothermia, trembling and peripheral cholinergic symptoms brought about by oxotremorine; assay: Interaction with oxotremorine; format: in vivo, mice; details: for effect towards oxotremorine: in words
Experimental: Mice (6 per dose) are given an intraperitoneal injection of 0.5 mg/kg of oxotremorine 30 minutes after the administration of CRL 40,028.

[3] = General behaviour / psychopharmacological spectrum (species not stated); format: in vivo; details: for mydriatic effect: in words
[4] = test system: mice; assay: General behaviour, mice; format: in vivo; details: mice
[5] = test system: central nervous system; assay: Pharmacological tests: action on the central nervous system, overall profile; format: in vivo; details: for action on the central nervous system: in words
Experimental: The results of the pharmacological tests which were carried out have been summarised below.

[6] = Solubility in water
[7] = test system: passes which entail pain; details: mentioned for comparison; cited from earlier work
[8] = at doses close to the toxic dose; mentioned for comparison; cited from earlier work
[9] = test system: mice; assay: Toxicity, intraperitoneal administration, mice; format: in vivo; details: intraperitoneal administration
[10] = test system: spontaneous motility; assay: Spontaneous motility (actimetry); format: in vivo, mice; details: mice
Experimental: CRL 40,028 increases the motor activity of the animals from a dose of 16 mg/kg onwards. As this effect is representative of the activity of CRL 40,028, attempts have been made to obtain its kinetics more precisely. […]

[11] = test system: rats; assay: General behaviour, rats; format: in vivo
[12] = test system: residual motility; assay: Residual motility; format: in vivo, mice
[13] = test system: hypothermia and ptosis produced by reserpine; assay: Interaction with reserpine; format: in vivo, mice
Experimental: Batches of 6 mice are given an intraperitoneal injection of reserpine (2.5 mg/kg) 4 hours before the administration of CRL 40,028.

[14] = test system: groups of mice; assay: Group toxicity; details: Table IV, graded symbols
[15] = test system: convulsive effects of the electric shock; assay: Electric shock; format: in vivo, mice
Experimental: (§1) The test is carried out on batches of 20 mice, 30 minutes after the administration of CRL 40,028.

[16] = test system: passes which entail pain; assay: Four plate test; format: in vivo, mice; details: in words
Experimental: as §1

[17] = at medium doses, very moderate intensity

Compound: Cl.NC(C[S+]([O-])C(c1ccccc1)c1ccccc1)=NO (stereo not shown) [CRL 40,048, Benzhydrylsulphinylacetamidoxime hydrochloride]
- boosting of stereotypies produced by amphetamine-type compounds [1]: boosts stereotypies produced by amphetamine-type compounds
- effect towards oxotremorine [2]: antagonist action on oxotremorine
- mydriatic effect [3]: absence of a mydriatic effect
- hyper-reactivity to the touch [4]: hyper-reactivity to the touch
- action on the central nervous system [5]: acts only on the central nervous system
- solubility [6]: 100 mg/mL

Compound: CNCCC=C1c2ccccc2CCc2ccccc21 [nortriptyline]
- effect in the four plate test (comparison drug) [7]: not
- sedation (comparison drug) [8]: a sedation at doses close to the toxic dose

Compound: O=C(CCC[S+]([O-])C(c1ccccc1)c1ccccc1)NO (stereo not shown) [CRL 40,278, 4-(Benzhydrylsulphinyl)-butyrohydroxamic acid]
- LD-O [9]: greater than 1,024 mg/kg
- action on the central nervous system [5]: acts on the central nervous system

Compound: O=C(CC[S+]([O-])C(c1ccccc1)c1ccccc1)NO (stereo not shown) [CRL 40,260, 3-(Benzhydrylsulphinyl)-propionohydroxamic acid]
- LD-O [9]: greater than 1,024 mg/kg
- toxicity in words [9]: low toxicity
- spontaneous motility [10]: a reduction in the spontaneous motility
- hyper-reactivity [4]: a hyper-reactivity
- sedation, with hypomotility [4]: a sedation, with hypomotility
- hyper-reactivity [11]: a hyper-reactivity
- sedation, with hypomotility [11]: a sedation, with hypomotility

Compound: Cl.[O-][S+](CCN1CCCCC1)C(c1ccccc1)c1ccccc1 (stereo not shown) [CRL 40,222, N-[2-(Benzhydrylsulphinyl)-ethyl]-piperidine hydrochloride]
- LD-O [9]: greater than 128 mg/kg
- spontaneous motility ([10]; only at a low dose of 1 mg/kg): an increase in the spontaneous motility
- residual motility ([12]; mice, 8 mg/kg): a stimulation of the residual motility
- duration of the stereotypies brought about by amphetamine [1]: an increase in the duration of the stereotypies
- anti-reserpine effect ([13]; in words): absence of an anti-reserpine effect
- effect towards oxotremorine [2]: a moderate action towards oxotremorine
- action on the central nervous system [5]: acts on the central nervous system

Compound: Cn1c(=O)c2c(ncn2C)n(C)c1=O [Caffeine, reference compound]
- Anti-reserpine action (ptosis) ([13]; Table IV, graded symbols): 0
- Anti-oxotremorine action (peripheral) ([2]; Table IV, graded symbols): 0
- Anti-oxotremorine action (trembling) ([2]; Table IV, graded symbols): 0
- Group toxicity [14]: 0

Compound: CN(C)CCC=C1c2ccccc2CCc2ccccc21 [amitriptyline]
- effect in the four plate test (comparison drug) [7]: a certain effect in the four plate test
- sedation (comparison drug) [8]: not

Compound: Cl.NC(CCC[S+]([O-])C(c1ccccc1)c1ccccc1)=NO (stereo not shown) [CRL 40,277, 4-(Benzhydrylsulphinyl)-butyramidoxime hydrochloride]
- LD-O [9]: greater than 512 mg/kg
- residual hypermotility [12, 17]: inconstant residual hypermotility
- boosting of the effect of amphetamine [1, 17]: boosting of the effect of amphetamine
- hypothermic effects of reserpine ([13]; at high doses): aggravation of the hypothermic effects of reserpine
- hypothermic effects of oxotremorine ([2]; at high doses): aggravation of the hypothermic effects
- lethal effects of the electric shock ([15]; at high doses): an aggravation of the lethal effects of the electric shock
- hypomotility ([3]; at high doses): hypomotility
- hypothermia ([3]; at high doses): hypothermia
- hyper-reactivity [3, 17]: hyper-reactivity
- action on the central nervous system [5]: acts on the central nervous system

Compound: Cl.NC(CC[S+]([O-])C(c1ccccc1)c1ccccc1)=NO (stereo not shown) [CRL 40,261, 3-(Benzhydrylsulphinyl)-propionamidoxime hydrochloride]
- LD-O [9]: greater than 256 mg/kg
- spontaneous motility ([10]; 2 mg/kg, 8 mg/kg and 32 mg/kg): an increase in the spontaneous motility
- duration of the stereotypies brought about by amphetamine [1]: an increase in the duration of the stereotypies
- hypothermia due to reserpine ([13]; in words): an increase in the hypothermia due to reserpine
- palpebral ptosis induced by reserpine ([13]; in words): without alteration of the palpebral ptosis
- effect towards oxotremorine [2]: moderate effect towards oxotremorine

Compound: CN(C)CCCN1c2ccccc2CCc2ccccc21 [imipramine]
- effect in the four plate test (comparison drug) [7]: a certain effect in the four plate test

Compound: Cl.[O-][S+](CCN1CCOCC1)C(c1ccccc1)c1ccccc1 (stereo not shown) [CRL 40,221, N-[2-(Benzhydrylsulphinyl)-ethyl]-morpholine hydrochloride]
- LD-O [9]: greater than 512 mg/kg
- motor activity in mice accustomed to their chamber ([12]; mice): a resumption of motor activity
- boosting of stereotypies produced by amphetamine-type compounds [1]: a (metabolic) boosting of the stereotypies
- anti-reserpine effect ([13]; in words): an anti-reserpine effect
- effect towards oxotremorine [2]: an anti-oxotremorine effect
- effect in the four plate test [16]: a certain effect in the four plate test
- protection against convulsions produced by electric shock ([15]; in words): a protection against convulsions
- sedation ([3]; at doses close to the toxic dose): a sedation at doses close to the toxic dose
- hypothermia ([3]; at high doses): hypothermia at high doses
- mydriatic effect [3]: a considerable mydriasis
- psychopharmacological spectrum ([5]; comparison with tricyclic anti-depressants): close to that of tricyclic anti-depressants
